Here are results for 25 compounds from patent US20030232986A1, “Inhibitors of caspases” (Vertex Pharmaceuticals Incorporated, priority 1998, published 2003).

By Ki is commonly meant the dissociation constant of the complex between target and ligand, obtained from inhibition or displacement. A word on the IC50: it is the concentration that gives 50% inhibition. Low readings indicate higher potency, high ones lower potency.

One data set deals with T1, Caspase-1 (Homo sapiens, UniProt P29466).
T1 sequence (P29466 120-297 limits assumed): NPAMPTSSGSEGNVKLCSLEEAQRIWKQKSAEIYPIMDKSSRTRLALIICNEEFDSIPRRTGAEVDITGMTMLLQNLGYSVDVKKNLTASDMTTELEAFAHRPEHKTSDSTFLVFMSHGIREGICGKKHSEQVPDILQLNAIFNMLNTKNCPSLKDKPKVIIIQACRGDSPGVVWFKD
T1 sequence (P29466 317-404 limits assumed): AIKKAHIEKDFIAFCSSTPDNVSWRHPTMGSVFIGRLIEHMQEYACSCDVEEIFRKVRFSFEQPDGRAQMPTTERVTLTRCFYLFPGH
The data set is described as follows: Caspase-1 enzyme inhibition (Ki). It is filed as biochemical. The method, boiled down:
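Ki obtained by fitting rate versus inhibitor concentration to the Morrison tight-binding equation for competitive inhibitors, with pNA release read at 405 nm at 37 °C. Substrate Suc-YVAD-pNA (80 μM final) added after 15 min enzyme–inhibitor preincubation in Tris pH 7.5 buffer with DTT and CHAPS.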

Data set [1] concerns Human whole blood, IL-1β production. The data set is described as follows: Whole blood assay for IL-1β production. It is filed as cell-based. The settings on record: LPS-stimulated whole blood, IL-1β by ELISA. The method, boiled down: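 LPS-stimulated (5.0 ng/ml final) human whole blood incubated with test compound in saline (or plasma/PBS-5% DMSO for hydrophobic compounds) at 30° C for 16-18 hr. Plasma IL-1β then measured by ELISA at 1:200 dilution, against no-LPS, no-inhibitor and vehicle controls.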
A general note: ELISA stands for enzyme-linked immunosorbent assay.

A short description of data set [2]: Single pass perfusion in rat: GI wall and liver metabolism, biliary excretion. It is filed as in vitro ADME. Particulars: for f (g) Xf (h): GI wall metabolism f(g) x liver metabolism f(h). As for the experimental part: Single pass perfusion studies in rat were performed to assess gastrointestinal (GI) wall metabolism (f(g)), liver metabolism (f(h)), and biliary excretion. The method used has been described in Pang, C. S., J. Pharmacol. Exp. Therapeutics, 333, pp. 788-798 (1984).

Setting [3] is: substrate Suc-YVAD-pNA 80 μM, 37° C., pH 7.5.

Where two headings read alike, the source gives them in different places. Where a SMILES comes first, the peptide text is derived from it. The star is where a group is joined. Bz = O=C(c1ccccc1)*

`CC(C)[C@H](NC(=O)c1ccccc1)C(=O)N1CC(c2ccccc2)[C@H]1C(=O)N[C@H](C=O)CC(=O)O` (some centres unmarked) [Example 24a] had a Ki at Caspase-1 (setting [3]) below 0.01 µM. The IC50 in data set [1] lay within 2.5 to 7.5 µM. For the same compound, in data set [2], the “Biliary Excretion” value is on record as “A (category “A” indicates <5%)” and the “f (g) Xf (h)” value is listed as “C (Category “C” indicates 0.5-0.75)”.
`CC[C@H](NC(=O)c1cc(Cl)c(O)c(Cl)c1)C(=O)N1CCC[C@H]1C(=O)N[C@H](C=O)CC(=O)O` [Example 20m] yielded a Ki at Caspase-1 (setting [3]) below 0.01 µM. In data set [1], this compound returned an IC50 below 2.5 µM.
At Caspase-1 (setting [3]), `O=C[C@H](CC(=O)O)NC(=O)[C@@H]1CCCN1C(=O)[C@H](Cc1cccnc1)NC(=O)c1nccc2ccccc12` [Example 20f] gave a Ki below 0.01 µM. Also, the IC50 in data set [1] was below 2.5 µM. In data set [2], the “Biliary Excretion” value is on record as “C (Category “C” indicates >10%)” and the “f (g) Xf (h)” value was “B (Category “B” indicates 0.25-0.49)”.
As for `COc1c(C)cc(C(=O)N[C@@H](C)C(=O)N2CCC[C@H]2C(=O)N[C@H](C=O)CC(=O)O)cc1C` [Example 122d, 3-({1-[2-(4-Methoxy-3,5-dimethyl-benzoylamino)-propionyl]-pyrrolidine-2-carbonyl}-amino)-4-oxo-butyric acid], on Caspase-1 (setting [3]), the Ki is below 0.01 µM. The IC50 in data set [1] was below 2.5 µM. In data set [2], the “Biliary Excretion” value is “A (category “A” indicates <5%)” and the “f (g) Xf (h)” value was “C (Category “C” indicates 0.5-0.75)”.
In the case of `CC(=O)Nc1ccc(C(=O)N[C@@H](C)C(=O)N2CCC[C@H]2C(=O)N[C@H](C=O)CC(=O)O)cc1Cl` [Example 122f, 3-({1-[2-(4-Acetylamino-3-chloro-benzoylamino)-propionyl]-pyrrolidine-2-carbonyl}-amino)-4-oxo-butyric acid], the inhibition constant Ki on Caspase-1 (setting [3]) is below 0.01 µM. Also, in data set [1], the IC50 is below 2.5 µM.
The compound `CC(C)[C@H](NC(=O)c1nccc2ccccc12)C(=O)N1CC[C@H](C)[C@H]1C(=O)N[C@H](C=O)CC(=O)O` [Example 26c] registered a Ki at Caspase-1 (setting [3]) below 0.01 µM. This compound gave an IC50 in data set [1] of 2.5 to 7.5 µM. In data set [2], the “Biliary Excretion” value is reported as “C (Category “C” indicates >10%)” and the “f (g) Xf (h)” value is listed as “A (category “A” indicates <0.25)”.
Taken in the same sequence, the figures for `COc1ccc(C(=O)NC(C(=O)N2CCCC2C(=O)NC(C=O)CC(=O)O)C(C)C)cc1` (centres unmarked) [Example 57, 3-({1-[2-(4-Methoxy-benzoylamino)-3-methyl-butyryl]-pyrrolidine-2-carbonyl}-amino)-4-oxo-butyric acid] were below 0.01 µM, above 7.5 µM, “B (Category “B” indicates 5-10%)” and “B (Category “B” indicates 0.25-0.49)”.
Taken in the same sequence, the figures for `CSC[C@H](NC(=O)c1nccc2ccccc12)C(=O)N1CCC[C@H]1C(=O)N[C@H](C=O)CC(=O)O` [Example 20g] were below 0.01 µM, below 2.5 µM, “A (category “A” indicates <5%)” and “B (Category “B” indicates 0.25-0.49)”.
`CC(C)[C@H](NC(=O)c1nccc2ccccc12)C(=O)N1CCC[C@H]1C(=O)N[C@H](C=O)CC(=O)O` [Example 5c]: the Ki at Caspase-1 (setting [3]) is below 0.01 µM. The IC50 in data set [1] was below 2.5 µM. Also, in data set [2], the “Biliary Excretion” value is “C (Category “C” indicates >10%)” and the “f (g) Xf (h)” value is reported as “A (category “A” indicates <0.25)”.
Consider `C[C@H](NC(=O)c1cc(Cl)c(O)c(Cl)c1)C(=O)N1CCC[C@H]1C(=O)N[C@H](C=O)CC(=O)O` [Example 122k, 3-({1-[2-(3,5-Dichloro-4-hydroxy-benzoylamino)-propionyl]-pyrrolidine-2-carbonyl}-amino)-4-oxo-butyric acid], for which the Ki at Caspase-1 (setting [3]) is below 0.01 µM. Moreover, the IC50 in data set [1] is below 2.5 µM.
The corresponding values for `CS(=O)(=O)CC[C@H](NC(=O)c1nccc2ccccc12)C(=O)N1CCC[C@H]1C(=O)N[C@H](C=O)CC(=O)O` [Example 20h] are below 0.01 µM and below 2.5 µM.
`COc1ccc(C(=O)N[C@@H](C)C(=O)N2CCC[C@H]2C(=O)N[C@H](C=O)CC(=O)O)cc1` [Example 7f] had an inhibition constant (Ki) on Caspase-1 (setting [3]) of 0.01 to 1 µM. The IC50 in data set [1] was in the range of 2.5 to 7.5 µM. Also, in data set [2], the “Biliary Excretion” value is recorded as “A (category “A” indicates <5%)” and the “f (g) Xf (h)” value is recorded as “C (Category “C” indicates 0.5-0.75)”.
Taken in the same sequence, the figures for `COc1c(Cl)cc(C(=O)N[C@@H](C)C(=O)N2CCC[C@H]2C(=O)N[C@H](C=O)CC(=O)O)cc1Cl` [Example 122c, 3-({1-[2-(3,5-Dichloro-4-methoxy-benzoylamino)-propionyl]-pyrrolidine-2-carbonyl}-amino)-4-oxo-butyric acid] were below 0.01 µM, 2.5 to 7.5 µM, “B (Category “B” indicates 5-10%)” and “C (Category “C” indicates 0.5-0.75)”.
For `C[C@H](NC(=O)c1ccc(N)c(Cl)c1)C(=O)N1CC(F)(F)C[C@H]1C(=O)N[C@H](C=O)CC(=O)O` [Example 27a], the Ki at Caspase-1 (setting [3]) was in the range of 0.01 to 1 µM. The compound also yielded an IC50 in data set [1] below 2.5 µM. Moreover, in data set [2], the “Biliary Excretion” value is reported as “A (category “A” indicates <5%)” and the “f (g) Xf (h)” value is on record as “C (Category “C” indicates 0.5-0.75)”.
The corresponding values for `COc1ccc(C(=O)NC(C(=O)N2CCCC2C(=O)NC(C=O)CC(=O)O)C(C)(C)C)cc1` (centres unmarked) [Example 69, 3-({1-[2-(4-Methoxy-benzoylamino)-3,3-dimethyl-butyryl]-pyrrolidine-2-carbonyl}-amino)-4-oxo-butyric acid] are below 0.01 µM, below 2.5 µM, “A (category “A” indicates <5%)” and “C (Category “C” indicates 0.5-0.75)”.
Taken in the same sequence, the figures for `Cc1cc(C(=O)N[C@H](C(=O)N2CCCC2C(=O)N[C@H](C=O)CC(=O)O)C(C)C)cc(C)c1O` (stereo partly drawn) [Example 65, 3-({l-[2-(4-Hydroxy-3,5-dimethyl-benzoyiamino)-3-methyl-butyryl]-pyrrolidine-2-carbonyl}-amino)-4-oxo-butyric acid] were below 0.01 µM, below 2.5 µM, “C (Category “C” indicates >10%)” and “B (Category “B” indicates 0.25-0.49)”.
With `C[C@H](NC(=O)[C@@H](NC(=O)c1nccc2ccccc12)C(C)(C)C)C(=O)N[C@H](C=O)CC(=O)O` [Example 29g], the Ki at Caspase-1 (setting [3]) is below 0.01 µM. Moreover, the IC50 in data set [1] is below 2.5 µM. In addition, in data set [2], the “Biliary Excretion” value was “B (Category “B” indicates 5-10%)” and the “f (g) Xf (h)” value was “B (Category “B” indicates 0.25-0.49)”.
The corresponding values for `C[C@H](NC(=O)c1nccc2ccccc12)C(=O)N1CCC[C@H]1C(=O)N[C@H](C=O)CC(=O)O` [Example 7d] are below 0.01 µM, 2.5 to 7.5 µM, “A (category “A” indicates <5%)” and “D (Category “D” indicates >0.75)”.
For the compound `CC(C)[C@H](NC(=O)c1nccc2ccccc12)C(=O)N1[C@@H](c2ccccc2)CC[C@H]1C(=O)N[C@H](C=O)CC(=O)O` [Example 26f], at Caspase-1 (setting [3]), the Ki was below 0.01 µM. Besides, the IC50 in data set [1] is 2.5 to 7.5 µM. In data set [2], the “Biliary Excretion” value is given as “C (Category “C” indicates >10%)” and the “f (g) Xf (h)” value is listed as “A (category “A” indicates <0.25)”.
The corresponding values for `CC(C)[C@H](NC(=O)c1nccc2ccccc12)C(=O)N1C2CCCCC2C[C@H]1C(=O)N[C@H](C=O)CC(=O)O` (some centres unmarked) [Example 26e] are below 0.01 µM, below 2.5 µM, “B (Category “B” indicates 5-10%)” and “B (Category “B” indicates 0.25-0.49)”.
Regarding `COCC(=O)N1CCN(C(=O)[C@H](C)NC(=O)c2ccc(N)c(Cl)c2)[C@H](C(=O)N[C@H](C=O)CC(=O)O)C1` [Example 18f], the Ki on Caspase-1 (setting [3]) was 0.01 to 1 µM. Further, in data set [1], the half-inhibitory concentration (IC50) is 2.5 to 7.5 µM. In addition, in data set [2], the “Biliary Excretion” value was “A (category “A” indicates <5%)” and the “f (g) Xf (h)” value is recorded as “D (Category “D” indicates >0.75)”.
Taken in the same sequence, the figures for `CC(C)[C@H](NC(=O)c1nccc2ccccc12)C(=O)N1CC(c2ccccc2)[C@H]1C(=O)N[C@H](C=O)CC(=O)O` (some centres unmarked) [Example 24c] were below 0.01 µM, 2.5 to 7.5 µM, “C (Category “C” indicates >10%)” and “A (category “A” indicates <0.25)”.
Consider `CC(C)[C@H](NC(=O)c1ccccc1)C(=O)N[C@@H](C)C(=O)N[C@H](C=O)CC(=O)O` [Example 29a] (Bz-Val-Ala-Asp-aldehyde), for which the Ki at Caspase-1 (setting [3]) was below 0.01 µM. The compound also returned a 50% inhibitory concentration (IC50) in data set [1] below 2.5 µM.
`CC(C)[C@H](NC(=O)c1cc(Cl)c(O)c(Cl)c1)C(=O)N1CCC[C@H]1C(=O)N[C@H](C=O)CC(=O)O` [Example 5m] returned a Ki at Caspase-1 below 0.01 µM. Also, the Ki at Caspase-1 (setting [3]) was below 0.01 µM. Besides, the IC50 in data set [1] was below 2.5 µM. Besides, in data set [2], the “Biliary Excretion” value is listed as “C (Category “C” indicates >10%)” and the “f (g) Xf (h)” value is listed as “B (Category “B” indicates 0.25-0.49)”.
On Caspase-1 (setting [3]), `Cc1cc(C(=O)N[C@@H](C)C(=O)N2CCC[C@H]2C(=O)N[C@H](C=O)CC(=O)O)cc(C)c1O` [Example 7c] had a Ki below 0.01 µM. Also, the IC50 in data set [1] is below 2.5 µM.
